Source: the NIST ThermoML archive (doi:10.1021/acs.jced.6b00750)

Assay: xn = mol fraction of the nth substance listed
Settings: Liquid; for mass density: Vibrating wire densiometer; for viscosity: Vibrating wire viscometry

C [methane] + CCCCCCCCCCCCCCCC
Settings	mass density [kg/m3]	viscosity [mPa·s]
298.15 K, 10230 kPa, x1 = 0.1013	781.6	3.304
298.15 K, 19830 kPa, x1 = 0.1013	786.5	3.687
298.21 K, 20070 kPa, x1 = 0.2976	780.7	3.712
298.21 K, 30320 kPa, x1 = 0.2976	786	4.196
298.22 K, 10040 kPa, x1 = 0.2021	775.4	3.308
298.22 K, 19950 kPa, x1 = 0.2021	781.3	3.742
298.33 K, 13910 kPa, x1 = 0.3979	781.1	3.321
298.33 K, 20030 kPa, x1 = 0.3979	784.6	3.548
298.33 K, 30040 kPa, x1 = 0.3979	791	3.938
323.22 K, 10080 kPa, x1 = 0.1013	765.4	1.993
323.22 K, 20170 kPa, x1 = 0.1013	771.2	2.205
323.22 K, 40020 kPa, x1 = 0.1013	783.4	2.69
323.22 K, 60000 kPa, x1 = 0.1013	791.6	3.255
323.22 K, 78560 kPa, x1 = 0.1013	801.7	3.927
323.23 K, 20400 kPa, x1 = 0.2976	769.6	2.151
323.23 K, 21720 kPa, x1 = 0.2976	770.4	2.147
323.23 K, 21740 kPa, x1 = 0.2976	770.3	2.146
323.23 K, 40220 kPa, x1 = 0.2976	781.5	2.597
323.23 K, 60040 kPa, x1 = 0.2976	791.5	3.162
323.23 K, 79910 kPa, x1 = 0.2976	800.3	3.859
323.26 K, 14530 kPa, x1 = 0.3979	763.7	1.887
323.26 K, 14750 kPa, x1 = 0.3979	763.9	1.918
323.26 K, 20040 kPa, x1 = 0.3979	766.5	2.058
323.26 K, 40050 kPa, x1 = 0.3979	778.7	2.56
323.32 K, 10010 kPa, x1 = 0.2021	756.6	1.901
323.32 K, 20100 kPa, x1 = 0.2021	763.2	2.147
323.32 K, 39150 kPa, x1 = 0.2021	775.8	2.576
373.2 K, 10050 kPa, x1 = 0.2021	721.1	0.926
373.2 K, 12610 kPa, x1 = 0.2021	723.4	0.951
373.2 K, 20020 kPa, x1 = 0.2021	729.5	1.037
373.2 K, 40260 kPa, x1 = 0.2021	744.4	1.27
373.2 K, 60350 kPa, x1 = 0.2021	757.1	1.521
373.2 K, 65050 kPa, x1 = 0.2021	759.8	1.586
373.26 K, 10000 kPa, x1 = 0.1013	732.3	0.967
373.26 K, 20170 kPa, x1 = 0.1013	740.6	1.112
373.26 K, 40110 kPa, x1 = 0.1013	754.5	1.334
373.26 K, 60080 kPa, x1 = 0.1013	767.4	1.571
373.26 K, 80130 kPa, x1 = 0.1013	777.3	1.897
373.41 K, 24090 kPa, x1 = 0.2976	738.5	1.04
373.41 K, 24100 kPa, x1 = 0.2976	738.2	1.038
373.41 K, 40140 kPa, x1 = 0.2976	749.9	1.222
373.41 K, 60030 kPa, x1 = 0.2976	762.2	1.465
373.41 K, 80100 kPa, x1 = 0.2976	773.7	1.749
373.47 K, 16680 kPa, x1 = 0.3979	730.1	0.921
373.47 K, 16740 kPa, x1 = 0.3979	729.9	0.942
373.47 K, 20010 kPa, x1 = 0.3979	732.4	0.97
373.47 K, 40020 kPa, x1 = 0.3979	747.6	1.17
373.47 K, 54720 kPa, x1 = 0.3979	756.7	1.365
373.47 K, 56030 kPa, x1 = 0.3979	757.3	1.364
423.24 K, 10310 kPa, x1 = 0.2021	686.8	0.557
423.24 K, 10870 kPa, x1 = 0.2021	687.6	0.556
423.24 K, 10900 kPa, x1 = 0.2021	687.1	0.557
423.24 K, 20030 kPa, x1 = 0.2021	697.4	0.625
423.24 K, 40040 kPa, x1 = 0.2021	715.6	0.762
423.24 K, 60080 kPa, x1 = 0.2021	730.3	0.912
423.24 K, 80150 kPa, x1 = 0.2021	743.2	1.067
423.31 K, 15700 kPa, x1 = 0.1013	707.2	0.611
423.31 K, 20010 kPa, x1 = 0.1013	711.8	0.643
423.31 K, 40030 kPa, x1 = 0.1013	728	0.816
423.31 K, 60000 kPa, x1 = 0.1013	744.5	–
423.31 K, 80070 kPa, x1 = 0.1013	754.2	1.133
423.58 K, 20510 kPa, x1 = 0.2976	703.1	0.612
423.58 K, 20550 kPa, x1 = 0.2976	703.3	0.606
423.58 K, 22750 kPa, x1 = 0.2976	705.4	0.618
423.58 K, 40090 kPa, x1 = 0.2976	720.8	0.734
423.58 K, 60240 kPa, x1 = 0.2976	735.9	0.873
423.58 K, 80360 kPa, x1 = 0.2976	748.5	1.03
423.94 K, 16530 kPa, x1 = 0.3979	696.8	0.565
423.94 K, 16610 kPa, x1 = 0.3979	697.1	0.555
423.94 K, 20030 kPa, x1 = 0.3979	700.1	0.587
423.94 K, 40010 kPa, x1 = 0.3979	718.3	0.717
423.94 K, 56150 kPa, x1 = 0.3979	730.8	0.822
473.17 K, 40030 kPa, x1 = 0.1013	705.1	0.591
473.17 K, 60040 kPa, x1 = 0.1013	721.8	0.687
473.17 K, 80060 kPa, x1 = 0.1013	735.5	0.794
473.36 K, 12980 kPa, x1 = 0.2021	656.9	0.388
473.36 K, 13010 kPa, x1 = 0.2021	656.8	0.387
473.36 K, 20070 kPa, x1 = 0.2021	666.6	0.425
473.36 K, 40070 kPa, x1 = 0.2021	688.4	0.53
473.36 K, 60040 kPa, x1 = 0.2021	706.1	0.627
473.36 K, 80030 kPa, x1 = 0.2021	720.5	0.732
473.4 K, 24480 kPa, x1 = 0.2976	676.6	0.431
473.4 K, 24500 kPa, x1 = 0.2976	676.6	0.427
473.4 K, 40130 kPa, x1 = 0.2976	693.5	0.501
473.4 K, 60110 kPa, x1 = 0.2976	710.7	0.6
473.4 K, 79930 kPa, x1 = 0.2976	724.7	0.717
473.68 K, 22720 kPa, x1 = 0.3979	673.5	0.42
473.68 K, 25730 kPa, x1 = 0.3979	676.9	0.435
473.68 K, 40080 kPa, x1 = 0.3979	692.4	0.502
473.68 K, 60000 kPa, x1 = 0.3979	709.8	0.596
473.68 K, 80230 kPa, x1 = 0.3979	724.2	0.704
